Results as given in paper PMC11942486, “The Impact of a Quinone Scaffold on Thermo-TRPs Modulation by Dimethylheptyl Phytocannabinoids” (International Journal of Molecular Sciences, 2025).
“And” between values parts separate entries of the source, which are not always exact repeats. Equal values may be shown once. Read-outs that look alike come from different tables or passages of the source.

What was measured:
human TRPV1 = molecular target: T1, human TRPV1 (Homo sapiens, UniProt Q8NER1); test: Thermo-TRP assay: [Ca2+]i elevation (Fluo-4) in HEK-293 cells transfected with TRPV1; assay type: cell-based
T1 construct: expressed in transfected cells
T1 sequence (Q8NER1 whole entry): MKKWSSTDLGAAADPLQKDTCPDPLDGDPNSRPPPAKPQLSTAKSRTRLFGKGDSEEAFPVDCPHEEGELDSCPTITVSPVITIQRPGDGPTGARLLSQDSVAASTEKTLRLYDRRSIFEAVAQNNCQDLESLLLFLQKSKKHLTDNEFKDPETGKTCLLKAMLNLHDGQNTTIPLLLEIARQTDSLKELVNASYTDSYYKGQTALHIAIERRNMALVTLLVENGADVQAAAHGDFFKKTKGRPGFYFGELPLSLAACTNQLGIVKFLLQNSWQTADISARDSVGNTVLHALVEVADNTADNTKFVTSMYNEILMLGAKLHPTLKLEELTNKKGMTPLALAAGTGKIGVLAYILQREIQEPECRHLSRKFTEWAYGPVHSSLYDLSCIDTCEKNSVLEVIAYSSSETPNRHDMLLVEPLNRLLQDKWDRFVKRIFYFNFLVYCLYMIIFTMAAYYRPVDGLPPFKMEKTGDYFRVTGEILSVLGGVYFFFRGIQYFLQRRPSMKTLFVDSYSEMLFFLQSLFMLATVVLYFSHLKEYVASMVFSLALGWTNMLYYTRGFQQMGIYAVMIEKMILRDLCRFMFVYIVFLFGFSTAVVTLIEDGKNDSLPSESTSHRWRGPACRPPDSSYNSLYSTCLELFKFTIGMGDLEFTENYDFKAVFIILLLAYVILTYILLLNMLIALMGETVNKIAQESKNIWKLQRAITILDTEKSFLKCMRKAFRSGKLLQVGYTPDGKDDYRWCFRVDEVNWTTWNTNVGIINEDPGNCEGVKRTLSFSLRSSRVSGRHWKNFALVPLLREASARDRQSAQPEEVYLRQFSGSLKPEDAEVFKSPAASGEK
Method: The compounds were tested on HEK-293 cells either stably transfected with rat TRPA1, TRPV2, TRPV3, TRPV4, TRPM8 or human TRPV1 or not-transfected, by performing a continuous monitoring of the intracellular calcium ([Ca^2+]i) elevation during the experiments, following the protocol already described. […] Cell fluorescence before and after the addition of various concentrations of tested compounds was measured, normalizing the effects against the response to ionomycin (IM, 4 μM). The effect on [Ca^2+]i in non-transfected HEK-293 cells were used as the baseline and subtracted from the values obtained from the transfected ones. The efficacy of the agonists was determined by normalizing their effect to the maximum Ca^2+ influx effect on [Ca^2+]i observed with application of 4μM ionomycin. The effects of TRPA1 agonists are expressed as a percentage of the effect obtained with 100 μM allyl isothiocyanate (AITC). In the TRPV3 assay, rat TRPV3-expressing HEK-293 cells were first sensitized with the structurally unrelated agonist 2-aminoethoxydiphenyl borate (100 μM). For the TRPM8, the experiments were carried out at 22 °C. The potency (EC50 values) is determined as the concentration required to produce half-maximal increases in [Ca^2+]i. […] A dose-response curve fitting (sigmoidal dose-response variable slope) and parameter estimation were performed with Graph-Pad Prism 8 (GraphPad Software Inc., San Diego, CA, USA). All determinations were performed at least in triplicate.

rat TRPV3 = molecular target: T2, rat TRPV3 (Rattus norvegicus, UniProt Q4QYD9); test: Thermo-TRP assay: [Ca2+]i elevation (Fluo-4) in HEK-293 cells transfected with TRPV3; assay type: cell-based; details: for TRPV3 Efficacy (% Ionomycin 4 μM): agonist effect as % of ionomycin 4 μM, cells sensitized with 2-aminoethoxydiphenyl borate 100 μM; for IC50: antagonist/desensitizing, vs Thymol 100 μM; for EC50: half-maximal increase in [Ca2+]i, read-out: TRPV3 Potency EC50
T2 construct: expressed in transfected cells
T2 sequence (Q4QYD9 1-791): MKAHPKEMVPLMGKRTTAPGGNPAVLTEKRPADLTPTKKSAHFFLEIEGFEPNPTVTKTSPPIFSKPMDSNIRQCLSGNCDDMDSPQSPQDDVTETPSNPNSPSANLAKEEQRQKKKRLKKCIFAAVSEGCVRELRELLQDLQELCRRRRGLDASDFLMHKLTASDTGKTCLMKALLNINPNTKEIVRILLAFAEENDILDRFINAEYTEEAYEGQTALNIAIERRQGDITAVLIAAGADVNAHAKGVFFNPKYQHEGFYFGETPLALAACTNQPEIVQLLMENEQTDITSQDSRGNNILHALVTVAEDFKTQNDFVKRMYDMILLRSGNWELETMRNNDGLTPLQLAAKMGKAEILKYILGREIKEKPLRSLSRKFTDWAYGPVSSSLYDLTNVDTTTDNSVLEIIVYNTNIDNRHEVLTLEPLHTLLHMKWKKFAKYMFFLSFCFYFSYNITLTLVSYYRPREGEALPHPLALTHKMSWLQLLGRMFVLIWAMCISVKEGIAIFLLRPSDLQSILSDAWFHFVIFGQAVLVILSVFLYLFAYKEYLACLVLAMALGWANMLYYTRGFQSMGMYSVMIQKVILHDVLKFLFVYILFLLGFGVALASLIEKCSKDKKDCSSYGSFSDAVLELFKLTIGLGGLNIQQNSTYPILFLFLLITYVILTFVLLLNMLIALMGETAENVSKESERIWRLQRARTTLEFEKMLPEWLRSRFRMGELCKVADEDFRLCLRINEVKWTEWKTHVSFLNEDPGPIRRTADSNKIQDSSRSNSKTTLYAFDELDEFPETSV
Method: The compounds were tested on HEK-293 cells either stably transfected with rat TRPA1, TRPV2, TRPV3, TRPV4, TRPM8 or human TRPV1 or not-transfected, by performing a continuous monitoring of the intracellular calcium ([Ca^2+]i) elevation during the experiments, following the protocol already described. On the day of the experiment, the cells were loaded for 1 h in the dark at room temperature with the fluorescent probe Fluo-4 AM (4 μM in DMSO containing 0.02% Pluronic F-127). The cells were rinsed, resuspended in Tyrode’s solution (145 mM NaCl, 2.5 mM KCl, 1.5 mM CaCl2, 1.2 mM MgCl2, 10 mM D-glucose, and 10 mM HEPES, pH 7.4), and transferred to a quartz cuvette of a spectrofluorimeter (PerkinElmer LS50B; λEX = 488 nm, λEM = 516 nm) equipped with a PTP-1 fluorescence Peltier system (PerkinElmer Life and Analytical Sciences, Waltham, MA, USA) under continuous stirring. Cell fluorescence before and after the addition of various concentrations of tested compounds was measured, normalizing the effects against the response to ionomycin (IM, 4 μM). The effect on [Ca^2+]i in non-transfected HEK-293 cells were used as the baseline and subtracted from the values obtained from the transfected ones. The efficacy of the agonists was determined by normalizing their effect to the maximum Ca^2+ influx effect on [Ca^2+]i observed with application of 4μM ionomycin. The effects of TRPA1 agonists are expressed as a percentage of the effect obtained with 100 μM allyl isothiocyanate (AITC). In the TRPV3 assay, rat TRPV3-expressing HEK-293 cells were first sensitized with the structurally unrelated agonist 2-aminoethoxydiphenyl borate (100 μM). For the TRPM8, the experiments were carried out at 22 °C. The potency (EC50 values) is determined as the concentration required to produce half-maximal increases in [Ca^2+]i. Antagonist/desensitizing behavior is evaluated against the agonist of the TRP analyzed by adding the compounds directly in the quartz cuvette 5 min before stimulation of cells with the agonist (allylisothiocyanate (100 μM) for TRPA1, capsaicin (0.1 μM) for TRPV1, cannabidiol (2 μM) for TRPV2, thymol (100 μM) for TRPV3, GSK1016790A (10 nM) for TRPV4, and icilin (0.25 μM) for TRPM8). The IC50 value is expressed as the concentration exerting a half-maximal inhibition of the agonist effect, taking as 100% the effect on [Ca^2+]i exerted by the agonist alone. A dose-response curve fitting (sigmoidal dose-response variable slope) and parameter estimation were performed with Graph-Pad Prism 8 (GraphPad Software Inc., San Diego, CA, USA). All determinations were performed at least in triplicate.

[1] = vs Capsaicin 0.1 μM, read-out: IC50 TRPV1

Row | SMILES | IC50 (human TRPV1) [µM] | TRPV3 Efficacy (% Ionomycin 4 μM) (rat TRPV3) [%] | IC50 (rat TRPV3) | EC50 (rat TRPV3) [µM] | IC50 (human TRPV1; [1]) [µM]
1 | CCCCCCC(C)(C)C1=CC2=C(C(=O)C1=O)[C@@H]1CC(C)=CC[C@H]1C(C)(C)O2 [6b] | > 100 | 66.8 ± 2.2 | 0.72 ± 0.08 µM | 0.5 ± 0.1 | 
2 | C=C(C)[C@@H]1CCC(C)=C[C@H]1C1=C(O)C(=O)C(C(C)(C)CCCCCC)=CC1=O [5b] |  | 64.3 ± 0.9 | 0.76 ± 0.01 µM | 0.46 ± 0.02 | > 100
3 | CCCCCCC(C)(C)C1=CC(=O)C2=C(OC(C)(CCC=C(C)C)C=C2)C1=O (stereo not shown) [8b] |  | 37.55 ± 0.85 | 38.3 ± 2 µM | 13.6 ± 1.8 | > 100
4 | CCCCCCC(C)(C)C1=CC(=O)C(C/C=C(\C)CCC=C(C)C)=C(O)C1=O [7b, p-DMHCBGQ] |  | 51.1 ± 1.0 | < 10 µM and 8.6 µM | 1.5 ± 0.2 | > 100
